Data taken from ChEMBL document CHEMBL1201862, “PubChem BioAssay data set” (2004).
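Exposure lasted 48 hours, with cells grown in 96-well plates and compounds tested at five concentrations. GI50 marks 50% less growth.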 Calls of active or inactive are those of the source. No stated cut-off is given here; in the data, active = GI50 up to about 1.1 µM and inactive = higher.

What was measured:
Experiment in all cases: growth of human tumour cells (NCI), 48 h
CCRF-CEM = tested on: CCRF-CEM
COLO 205 = tested on: COLO 205
HCC 2998 = tested on: HCC 2998
HOP-92 = tested on: HOP-92
IGROV-1 = tested on: IGROV-1
KM12 = tested on: KM12
LOX IMVI = tested on: LOX IMVI
MOLT-4 = tested on: MOLT-4
NCI-H460 = tested on: NCI-H460
OVCAR-4 = tested on: OVCAR-4
RXF 393 = tested on: RXF 393
SF-295 = tested on: SF-295
SK-MEL-2 = tested on: SK-MEL-2
SNB-19 = tested on: SNB-19
SNB-75 = tested on: SNB-75
UACC-257 = tested on: UACC-257
NCI-H522 = tested on: NCI-H522
OVCAR-3 = tested on: OVCAR-3
SK-OV-3 = tested on: SK-OV-3
UACC-62 = tested on: UACC-62

Row | Structure (SMILES) | GI50 (CCRF-CEM) | GI50 (COLO 205) | GI50 (HCC 2998) | GI50 (HOP-92) | GI50 (IGROV-1) | GI50 (KM12) | GI50 (LOX IMVI) | GI50 (MOLT-4) | GI50 (NCI-H460) | GI50 (OVCAR-4) | GI50 (RXF 393) | GI50 (SF-295) | GI50 (SK-MEL-2) | GI50 (SNB-19) | GI50 (SNB-75) | GI50 (UACC-257) | GI50 (NCI-H522) | GI50 (OVCAR-3) | GI50 (SK-OV-3) | GI50 (UACC-62)
1 | COc1nc2[nH]ccc2c(=O)[nH]1 | > 100 µM (inactive) | > 100 µM (inactive) | > 100 µM (inactive) | > 100 µM (inactive) | > 100 µM (inactive) | > 100 µM (inactive) | > 100 µM (inactive) | > 100 µM (inactive) | > 100 µM (inactive) | > 100 µM (inactive) | > 100 µM (inactive) | > 100 µM (inactive) | > 100 µM (inactive) | > 100 µM (inactive) | > 100 µM (inactive) | > 100 µM (inactive) | – | – | – | –
2 | COc1cc(C(=O)C/C(CCC(=O)Nc2ccc(Cl)cc2Cl)=N/NC(=O)C(=O)NN)ccc1O | > 100 µM (inactive) | > 100 µM (inactive) | > 100 µM (inactive) | > 100 µM (inactive) | > 100 µM (inactive) | > 100 µM (inactive) | 43.3 µM (inactive) | – | > 100 µM (inactive) | > 100 µM (inactive) | > 100 µM (inactive) | > 100 µM (inactive) | – | > 100 µM (inactive) | > 100 µM (inactive) | > 100 µM (inactive) | > 100 µM (inactive) | > 100 µM (inactive) | > 100 µM (inactive) | 53.8 µM (inactive)
3 | COC1/C=C/C(C)C(C(C)C(OC)C(C)CCC(=O)C(C)C(C/C=C/N(C)C=O)OC)OC(=O)/C=C/C=C(\C)CC(OC)CC2=CC(=O)O[C@H](C2)C(C)C(OC)CC(OC)/C=C/C(C)C(OC)C1 (some centres undefined) | < 0.005 µM (active) | – | 0.0133 µM (active) | 0.0142 µM (active) | 0.0113 µM (active) | 0.0094 µM (active) | < 0.005 µM (active) | < 0.005 µM (active) | < 0.005 µM (active) | 0.0984 µM (active) | 0.0148 µM (active) | 0.00619 µM (active) | 0.00733 µM (active) | 0.0149 µM (active) | < 0.005 µM (active) | 0.00819 µM (active) | 0.00588 µM (active) | – | 0.00955 µM (active) | 0.00752 µM (active)
4 | Cc1cn(Cc2cnnn2CC2OC(n3cc(C)c(=O)[nH]c3=O)CC2O)c(=O)[nH]c1=O (centres undefined) | > 100 µM (inactive) | > 100 µM (inactive) | > 100 µM (inactive) | > 100 µM (inactive) | > 100 µM (inactive) | > 100 µM (inactive) | > 100 µM (inactive) | > 100 µM (inactive) | – | > 100 µM (inactive) | > 100 µM (inactive) | > 100 µM (inactive) | > 100 µM (inactive) | > 100 µM (inactive) | – | > 100 µM (inactive) | – | > 100 µM (inactive) | > 100 µM (inactive) | > 100 µM (inactive)
5 | Cc1cc(N(CCC#N)S(=O)(=O)c2ccccc2)ccc1/C=N\c1cccc(C(=O)O)c1 | > 100 µM (inactive) | > 100 µM (inactive) | > 100 µM (inactive) | > 100 µM (inactive) | > 100 µM (inactive) | – | – | > 100 µM (inactive) | > 100 µM (inactive) | > 100 µM (inactive) | > 100 µM (inactive) | > 100 µM (inactive) | > 100 µM (inactive) | > 100 µM (inactive) | 35.6 µM (inactive) | > 100 µM (inactive) | > 100 µM (inactive) | > 100 µM (inactive) | > 100 µM (inactive) | > 100 µM (inactive)
6 | O=c1c(-c2ccccc2)c(SCCCN2CCCCC2)n(-c2ccccc2)c(=S)n1-c1ccccc1 | 15.7 µM (inactive) | 17.6 µM (inactive) | 3.83 µM (inactive) | 12.1 µM (inactive) | 17.9 µM (inactive) | 19.4 µM (inactive) | 16.3 µM (inactive) | 18.2 µM (inactive) | 16.4 µM (inactive) | 24 µM (inactive) | 14.3 µM (inactive) | 17.1 µM (inactive) | 15.9 µM (inactive) | – | 15.3 µM (inactive) | 16.8 µM (inactive) | 22.4 µM (inactive) | 18.2 µM (inactive) | 19.8 µM (inactive) | 16.1 µM (inactive)
7 | Cc1ccc([N+](=O)[O-])cc1NC(=O)C(=O)C(C(=O)c1ccccc1F)C1OC(=O)c2ccccc21 (centres undefined) | 26.8 µM (inactive) | 38.9 µM (inactive) | 29.7 µM (inactive) | > 100 µM (inactive) | 59.7 µM (inactive) | 52.5 µM (inactive) | 27.5 µM (inactive) | 36.1 µM (inactive) | 38.9 µM (inactive) | 65 µM (inactive) | 20.5 µM (inactive) | 42.6 µM (inactive) | 25.9 µM (inactive) | 15.3 µM (inactive) | 38.5 µM (inactive) | > 100 µM (inactive) | 20.3 µM (inactive) | – | 46.5 µM (inactive) | 33.7 µM (inactive)
8 | COc1ccc(NCC(=O)Nn2c(-c3ccccc3)nc3ccccc3c2=O)cc1 | 24.2 µM (inactive) | 37.2 µM (inactive) | 77.6 µM (inactive) | 25.4 µM (inactive) | 27 µM (inactive) | 70.8 µM (inactive) | 19.6 µM (inactive) | 18.4 µM (inactive) | 51.1 µM (inactive) | 33.7 µM (inactive) | > 10 µM (inactive) | > 100 µM (inactive) | – | 50.2 µM (inactive) | 44.4 µM (inactive) | 52.2 µM (inactive) | > 10 µM (inactive) | 60.7 µM (inactive) | > 100 µM (inactive) | 14.1 µM (inactive)
9 | O=c1c2c3c(sc2nc(CN2CCNCC2)n1-c1ccccc1)CCCC3 | > 100 µM (inactive) | > 100 µM (inactive) | > 100 µM (inactive) | > 100 µM (inactive) | > 100 µM (inactive) | > 100 µM (inactive) | > 100 µM (inactive) | > 100 µM (inactive) | > 100 µM (inactive) | 22.8 µM (inactive) | > 100 µM (inactive) | > 100 µM (inactive) | > 100 µM (inactive) | > 100 µM (inactive) | 34.8 µM (inactive) | > 100 µM (inactive) | > 100 µM (inactive) | > 100 µM (inactive) | > 100 µM (inactive) | > 100 µM (inactive)
10 | CC(=O)OCC1OC(n2c(-c3ccc(Cl)cc3)cc(-c3ccccc3)c(C#N)c2=S)C(OC(C)=O)C(OC(C)=O)C1OC(C)=O (centres undefined) | – | 13.2 µM (inactive) | 7.14 µM (inactive) | 19.6 µM (inactive) | 13.1 µM (inactive) | 18.5 µM (inactive) | 4.29 µM (inactive) | 12.8 µM (inactive) | 5.78 µM (inactive) | 1.79 µM (inactive) | 13.3 µM (inactive) | 11.5 µM (inactive) | – | 8.53 µM (inactive) | 8.13 µM (inactive) | – | 18.1 µM (inactive) | 10.6 µM (inactive) | 12.6 µM (inactive) | 3.85 µM (inactive)
11 | CN(C)c1ccc(C2SCC(=O)N2NS(=O)(=O)c2cccc(C(=O)O)c2)cc1 (centres undefined) | 0.731 µM (active) | > 100 µM (inactive) | > 100 µM (inactive) | > 100 µM (inactive) | > 100 µM (inactive) | > 100 µM (inactive) | > 100 µM (inactive) | 42.8 µM (inactive) | 76.2 µM (inactive) | – | > 100 µM (inactive) | 94 µM (inactive) | > 100 µM (inactive) | > 100 µM (inactive) | > 100 µM (inactive) | > 100 µM (inactive) | 28.2 µM (inactive) | > 100 µM (inactive) | > 100 µM (inactive) | > 100 µM (inactive)
12 | N#CC1(CCCI)CCCC1 | 11.5 µM (inactive) | 27.8 µM (inactive) | 33.7 µM (inactive) | 15.6 µM (inactive) | > 100 µM (inactive) | 17.5 µM (inactive) | 3.76 µM (inactive) | 13.8 µM (inactive) | 2.92 µM (inactive) | – | 11 µM (inactive) | 29.4 µM (inactive) | 15.9 µM (inactive) | 15.8 µM (inactive) | 1.53 µM (inactive) | 22.6 µM (inactive) | 3.24 µM (inactive) | 16 µM (inactive) | 64.4 µM (inactive) | 11 µM (inactive)
13 | CC1(C)COC2C(N(Cc3ccccc3)Cc3ccccc3)C(=O)N21 (centres undefined) | 32.7 µM (inactive) | 25.1 µM (inactive) | 41.7 µM (inactive) | 29.3 µM (inactive) | 41.9 µM (inactive) | 37.8 µM (inactive) | 46.6 µM (inactive) | 25.9 µM (inactive) | 39.7 µM (inactive) | 27.9 µM (inactive) | 19.3 µM (inactive) | 32.1 µM (inactive) | – | 24 µM (inactive) | 20 µM (inactive) | 98.6 µM (inactive) | 19.4 µM (inactive) | 30.5 µM (inactive) | 24.9 µM (inactive) | 25.1 µM (inactive)
14 | N#Cc1c(-c2ccccc2)cn(C(=O)c2ccccc2)c1N | > 100 µM (inactive) | > 100 µM (inactive) | < 0.01 µM (active) | > 100 µM (inactive) | > 100 µM (inactive) | > 100 µM (inactive) | > 100 µM (inactive) | > 100 µM (inactive) | – | 21.3 µM (inactive) | – | > 100 µM (inactive) | > 100 µM (inactive) | > 100 µM (inactive) | > 100 µM (inactive) | – | > 100 µM (inactive) | > 100 µM (inactive) | > 100 µM (inactive) | > 100 µM (inactive)
15 | C=CCNC(=S)N/N=C1\C(=O)Nc2ccc([N+](=O)[O-])cc21 | 5.13 µM (inactive) | 92 µM (inactive) | 23.3 µM (inactive) | 44.2 µM (inactive) | 23.3 µM (inactive) | 46.6 µM (inactive) | 81.8 µM (inactive) | 16.7 µM (inactive) | 16.6 µM (inactive) | 41.4 µM (inactive) | 16.8 µM (inactive) | 29 µM (inactive) | > 100 µM (inactive) | 55.7 µM (inactive) | – | 71 µM (inactive) | 64.1 µM (inactive) | 69.2 µM (inactive) | 34 µM (inactive) | > 100 µM (inactive)
